We go through one compound from US8367716B2 (priority 2003, dated 2013).

Data set [1] has as its system S. aureus DK825. The data set can be described thus: Effect on growth rate and cell count of S. aureus. Format: cell-based, Staphylococcus aureus. How it is done: Effect on growth rate of S. aureus. S. aureus DK825 was subcultured from glycerol stocks onto a blood agar plate and incubated at 37° C. for 18 h. A single colony was then inoculated into 5 ml TSB broth (supplemented with 0.25% glucose) and incubated at 37° C. for 24 h with shaking at 250 rpm. From a 10^−3 dilution of the overnight culture a 100 μl aliquot was inoculated into tubes containing 5 ml TSB broth resulting in an initial cell count of […] (confirmed by plating). For “treated” samples, an appropriate aliquot of c-di-GMP was added to give 200 μM c-di-GMP (final concentration). As a negative “untreated” control, tubes containing TSB and a similar volume of 0.9% NaCl were included in the studies. At time zero, 50 μl from each sample was plated on blood agar plates to determine the initial cfu/ml. […]

The next data set relates to S. aureus. As to the kind of experiment: Tube agglutination assay and light microscopy (cell-to-cell aggregation). Format: cell-based, Staphylococcus aureus. As for the experimental part: Tube agglutination assay and light microscopy. Colonies from a 18 h blood agar plate were inoculated into 1 ml PBS to make a 0.5 McFarland standard containing ˜5×10^8 cfu/ml (confirmed by plate count). A 5 μl aliquot from the 0.5 McFarland standard was then inoculated into 5 ml polystyrene tubes containing 1 ml TSB representing ˜10^5 cfu/ml (confirmed by plate count). These tubes were inoculated either with 50 μl c-di-GMP to give a 200 μM c-di-GMP final concentration representing a “treated” sample or inoculated with 50 μl 0.9% NaCl as a control and representing an “untreated” control. Cultures were incubated at 37° C. for 24 h statically. Following incubation, these cultures were examined macroscopically and microscopically (Zeiss Axioskop) for the presence or absence of visible cell-to-cell clumping.

The test system of data set [2] is S. aureus DK825. As to the kind of experiment: Effect on 24 h pre-formed biofilms. Format: cell-based, Staphylococcus aureus. Conditions: 200 μM added to 24 h pre-formed biofilm, further 24 h. As for the experimental part:
Effect of c-di-GMP on S. aureus pre-formed biofilms. S. aureus DK825 was subcultured from glycerol stocks onto blood agar plate and incubated at 37° C. statically. A single colony was inoculated into 5 ml TSB broth (containing 0.25% glucose) and incubated at 37° C. overnight with shaking at 250 rpm until the culture reached OD660˜3.0. Following incubation the culture was diluted to 1:250 with fresh TSB broth and a 200 μl of the diluted culture was transferred into each well of microtitre plate and the plate containing wells with S. aureus cultures was incubated statically at 37° C. for 24 h. After 24 h, an appropriate volume of c-di-GMP was added to give a final concentration of 200 μM and represented the “treated” sample. As an “untreated” control, an identical volume of 0.9% NaCl was added to independent wells. The plates were then incubated statically at 37° C. for an additional 24 h. Following incubation the culture was discarded and microtitre plate was washed twice with 1X PBS. An equal volume (260 μl) of 1X PBS was added to each well for washing. The plates were then kept for drying on paper towel ˜30 min. A 260 μl of 0.1% crystal violet was added to each well to stain the cells in the biofilm and the plates were incubated at room temperature for 30 min. […] To quantitatively assay the amount of biofilm, the OD570 was measured by a spectrophotometer (SpectraMAX 250, Molecular Devices). […]

For data set [3], the system named is S. aureus strain DK825 adherence to HeLa cells. The data set can be described thus: Epithelial cell assay (bacterial adherence to HeLa cells). Format: cell-based, Staphylococcus aureus. As for the experimental part: Epithelial cell assay. HeLa cells (ATCC CCL2) were grown to confluence in complete medium (10% FBS from Sigma, DMEM/F12 with glutamine from Invitrogen and 50 μg/ml gentamicin) and were trypsinized with 0.1% trypsin-EDTA. Approximately 1×10^5 HeLa cells were seeded in each well of a chamber slide and then the HeLa cells were incubated at 37° C. in 5% CO2 for at least 18 h until 85% confluent. Prior to infection, the HeLa cells were washed twice with warm PBS and then 500 μl warm FMEM/F12 was added to each well. For the bacterial adherence assay, an overnight culture of S. aureus strain DK825 was grown overnight in 5 ml LB broth at 37° C. with shaking at 250 rpm. Following incubation, 1 ml of the overnight culture was pelleted, washed twice with PBS and resuspended in 1 ml of PBS. The HeLa cells in the wells were washed twice with 500 μl of HBSS and aliquots of DMEM with the desired final concentration of c-di-GMP (0-, 2-, 20- and 200 μM) were prepared. DMEM (500 μl) containing the respective concentrations of c-di-GMP was inoculated into the wells containing HeLa cells followed by the addition of 10 μl (˜10^7 cells) S. aureus (MOI HeLa:bacteria˜1:100). The epithelial cell assay was incubated in CO2 for 45 min. Following incubation the cells were washed twice with 500 μl PBS and fixed with 2% formalin for 20 min. The cells were again washed twice with PBS and stained with Giemsa stain for 10 seconds, washed three times with PBS, then the cells covered with 40 μl of 90% glycerol in water and a cover slip was placed. The slides were observed under a light microscope (Zeiss Axioskop) at 630×mag. The level of bacterial adherence to 100 individual HeLa cells was calculated for each duplicate treatment and the average determined.

The test system of the next data set is HeLa cells. As to the kind of experiment: HeLa cell toxicity (cell morphology). Format: cell-based, human. How it is done:
Safety and toxicity assays. For HeLa cell toxicity studies, various concentrations (0-, 25-, 50-, 100-, 200- and 400 μM) of c-di-GMP were tested in separate wells of chamber slides containing HeLa cells prepared as described above in complete media (in the absence of bacteria). HeLa cell morphology was examined microscopically after 12-, 24- and 48 h incubation. The potential lethality of c-di-GMP administered to mice was also examined. In these studies, adult female CD-1 mice and 5 day old infant mice were inoculated orally with 50 μL of 200 μM c-di-GMP and examined 24 h after c-di-GMP treatment.

The subject of data set [4] is S. aureus DK825. As to the kind of experiment: Coagulase production (bound or free). Format: cell-based, Staphylococcus aureus.

With `Nc1nc2c(ncn2C2OC3COP(=O)(O)OC4C(COP(=O)(O)OC3C2O)OC(n2cnc3c(=O)[nH]c(N)nc32)C4O)c(=O)[nH]1` (centres unmarked) [c-di-GMP, 3′,5′-cyclic diguanylic acid], the final cell count in the data set with S. aureus DK825 [1] (200 μM, 24 h static culture, no difference to untreated) is on record as 6×10^8 CFU/ml. For the same compound, in the data set with S. aureus DK825 [1] (200 μM, hourly examination up to 8 h), the “effect on growth rate” value is given as “no obvious effect”. The “inhibition of cell viability” value with S. aureus DK825 [1] (as recalled in Example 5 from Example 3) is “approximately 1 log”. For the same compound, the “cell-to-cell interactions and clumping (Gram stain, light microscopy)” value was “dramatically less cell-to-cell interactions and clumping” in the data set on S. aureus (DK825, 200 μM); “less intercellular interactions and clumping” in the data set on S. aureus (bovine mastitis strains V329, V299, V315). The “visible cell aggregation (macroscopic)” value in the data set with S. aureus (DK825, 200 μM, 24 h static) is reported as “no obvious visible cell aggregation or pellet”; with S. aureus (bap mutant M556), “inhibits cell aggregation”. Besides, in the data set with S. aureus DK825 [2], the “reduction of further biofilm development” value is given as about 75%. The “effect on adherence to HeLa cells” value in data set [3] (2 μM) and in data set [3] (20 μM) was “did not show any obvious effect” throughout. In data set [3] (200 μM), this compound yielded a reduction in adherence of about 66%. Moreover, the average adherence in data set [3] (200 μM, untreated 12 bacteria/cell) was 4 bacteria/cell. In addition, the “concentrations relatively noncytotoxic to HeLa cells” value in the data set on HeLa cells is under 400 µM. The “effect on HeLa cell morphology” value in the data set on HeLa cells (0-, 25-, 50-, 100-, 200- and 400 μM, 12-, 24- and 48 h) is “no obvious visible effect”. Also, the “changes in HeLa cell morphology” value in the data set with HeLa cells (400 μM, 48 h exposure) was “morphological changes”; with HeLa cells (up to 400 μM, 24 h exposure), “did not cause any obvious changes in cell morphology”. Further, the “coagulase production treated vs untreated” value in the data set with S. aureus DK825 [4] is reported as “no difference”.
